Test results taken from US20060281711A1, “IL-12 modulatory compounds” (Synta Pharmaceuticals Corp., priority 2005, published 2006).

Test system: IL-12
Assay: Human in vitro assay: inhibition of IL-12 production in stimulated human PBMC or THP-1 cells (ELISA)
Assay type: cell-based
Settings: read-out: IC50 Range (in vitro IC50 for IL-12)
Excerpt: The biological activities of a compound of the invention can be evaluated by a number of cell-based assays. One of such assays can be conducted using cells from human peripheral blood mononuclear cells (PBMC) or human monocytic cell line (THP-1). The cells are stimulated with a combination of human interferon-γ (IFNγ) and lipopolysaccharide or a combination of IFNγ and Staphylococcus aureus Cowan I in the presence of a test compound. The level of inhibition of IL-12 production can be measured by determining the amount of p70 by using a sandwich ELISA assay with anti-human IL-12 antibodies. IC50 of the test compound can then be determined. Specifically, PBMC or THP-1 cells are incubated with the test compound. Cell viability was assessed using the bioreduction of MTS [3-(4,5-dimethylthiazol-2-yl)-5-(3-carboxymethoxyphenyl)-2-(4-sulfophenyl)-2H-tetrazolium] (Promega, Madison, Wis.).
8. Reagents. Staphylococcus aureus Cowan I (SAC) was obtained from Calbiochem (La Jolla, Calif.), and lipopolysaccharide (LPS, Serratia marscencens) was obtained from Sigma (St. Louis, Mo.). Human and mouse recombinant IFNγ were purchased from Boehringer Mannheim (Mannheim, Germany) and Pharmingen (San Diego, Calif.), respectively.
9. Human In Vitro Assay. Human PBMC were isolated by centrifugation using Ficoll-Paque (Pharmacia Biotech, Uppsala, Sweden) and prepared in RPMI medium supplemented with 10% fetal calf serum (FCS), 100 U/mL penicillin, and 100 μg/mL streptomycin. PBMC were plated in wells of a 96-well plate at a concentration of 5×10^5 cells/well, and primed by adding IFNγ (30 U/mL) for 22 h and stimulated by adding LPS (1 μg/mL), or by adding IFNγ (100 U/mL) and then stimulated by adding SAC (0.01%). A test pyrimidine compound was dissolved in DMSO, and added to wells of the 96-well plate. The final DMSO concentration was adjusted to 0.25% in all cultures, including the compound-free control. Human THP-1 cells were plated in wells, primed by adding IFNγ (100 U/mL) for 22 h and stimulated by adding SAC (0.025%) in the presence of different concentrations of the pyrimidine compound. Cell-free supernatants were taken 18 h later for measurement of cytokines. Cell viability was assessed using the bioreduction of MTS. Cell survival was estimated by determining the ratio of the absorbance in compound-treated groups versus compound-free control.
10. The supernatant was assayed for the amount of […], IL-12p70, or IL-10 by using a sandwich ELISA with anti-human antibodies, i.e., a Human IL-12 p40 ELISA kit from R&D Systems (Berkeley, Calif.), and a Human IL-12 p70 or IL-10 ELISA kit from Endogen (Cambridge, Mass.). Assays were based on the manufacturer's instructions.
The biological activities of compounds of the invention were tested on human PBMC or THP-1 cells.

Row | Compound | IC50 [nM]
1 | COc1ccc2c(c1)CC/C2=N\Nc1cc(N2CCOCC2)nc(OCCN2CCOCC2)n1 [Compound 8, N-(5-Methoxy-indan-1-ylidene)-N′-[6-morpholin-4-yl-2-(2-morpholin-4-yl-ethoxy)-pyrimidin-4-yl]-hydrazine] | ≥ 1000
2 | O=S1(=O)CC/C(=N\Nc2cc(N3CCOCC3)nc(OCCN3CCOCC3)n2)c2cc(Cl)ccc21 [Compound 38, N-(6-Chloro-1,1-dioxo-1λ^6-thiochroman-4-ylidene)-N′-[6-morpholin-4-yl-2-(2-morpholin-4-yl-ethoxy)-pyrimidin-4-yl]-hydrazine] | ≥ 1000
3 | CN1C(=O)/C(=N/Nc2cc(N3CCOCC3)nc(OCCN3CCOCC3)n2)c2ccccc21 [Compound 20, 1-Methyl-3-{[6-morpholin-4-yl-2-(2-morpholin-4-yl-ethoxy)-pyrimidin-4-yl]-hydrazono}-1,3-dihydro-indol-2-one] | ≥ 1000
4 | CC(C)(O)CCc1nc(N/N=C2\CCCc3cc(O)ccc32)cc(N2CCOCC2)n1 [Compound 24, 5-{[2-(3-Hydroxy-3-methyl-butyl)-6-morpholin-4-yl-pyrimidin-4-yl]-hydrazono}-5,6,7,8-tetrahydro-naphthalen-2-ol] | ≥ 1000
5 | Cc1ccc2c(c1)/C(=N/Nc1cc(N3CCOCC3)nc(OCCN3CCOCC3)n1)C(=O)N2 [Compound 1, 5-methyl-3-{[6-morpholin-4-yl-2-(2-morpholin-4-yl-ethoxy)-pyrimidin-4-yl]-hydrazono}-1,3-dihydro-indol-2-one] | < 1000
6 | COc1ccc2c(c1)CCC/C2=N\Nc1cc(N2CCOCC2)nc(OCCN2CCOCC2)n1 [Compound 13, N-(6-Methoxy-3,4-dihydro-2H-naphthalen-1-ylidene)-N′-[6-morpholin-4-yl-2-(2-morpholin-4-yl-ethoxy)-pyrimidin-4-yl]-hydrazine] | < 1000
7 | c1ccc2c(c1)CC(=NNc1cc(N3CCOCC3)nc(OCCN3CCOCC3)n1)C2 [Compound 10, N-(Indan-2-ylidene)-N′-[6-morpholin-4-yl-2-(2-morpholin-4-yl-ethoxy)-pyrimidin-4-yl]-hydrazine] | ≥ 1000
8 | CC1CC/C(=N\Nc2cc(N3CCOCC3)nc(OCCN3CCOCC3)n2)c2ccccc21 (stereo not shown) [Compound 19, N-(4-Methyl-3,4-dihydro-2H-naphthalen-1-ylidene)-N′-[6-morpholin-4-yl-2-(2-morpholin-4-yl-ethoxy)-pyrimidin-4-yl]-hydrazine] | ≥ 1000

Results, then the compound that gave them:

Row | IC50 [nM] | Compound
9 | < 1000 | Cc1ccc2occ/c(=N\Nc3cc(N4CCOCC4)nc(OCCN4CCOCC4)n3)c2c1 [Compound 39, N-(6-Methyl-chromen-4-ylidene)-N′-[6-morpholin-4-yl-2-(2-morpholin-4-yl-ethoxy)-pyrimidin-4-yl]-hydrazine]
10 | < 1000 | O=C1OCCN1CCOc1nc(N/N=C2\CCCc3cc(O)ccc32)cc(N2CCOCC2)n1 [Compound 22, 3-(2-{4-[N′-(6-Hydroxy-3,4-dihydro-2H-naphthalen-1-ylidene)-hydrazino]-6-morpholin-4-yl-pyrimidin-2-yloxy}-ethyl)-oxazolidin-2-one]
11 | < 1000 | O=[N+]([O-])c1ccc2c(c1)/C(=N/Nc1cc(N3CCOCC3)nc(OCCN3CCOCC3)n1)CCC2 [Compound 15, N-(7-Nitro-3,4-dihydro-2H-naphthalen-1-ylidene)-N′-[6-morpholin-4-yl-2-(2-morpholin-4-yl-ethoxy)-pyrimidin-4-yl]-hydrazine]
12 | ≥ 1000 | CC1C/C(=N/Nc2cc(N3CCOCC3)nc(OCCN3CCOCC3)n2)c2ccccc21 (stereo not shown) [Compound 6, N-(3-Methyl-indan-1-ylidene)-N′-[6-morpholin-4-yl-2-(2-morpholin-4-yl-ethoxy)-pyrimidin-4-yl]-hydrazine]
13 | ≥ 1000 | c1ccc2c(c1)OC/C2=N\Nc1cc(N2CCOCC2)nc(OCCN2CCOCC2)n1 [Compound 5, N-(Benzofuran-3-ylidene)-N′-[6-morpholin-4-yl-2-(2-morpholin-4-yl-ethoxy)-pyrimidin-4-yl]-hydrazine]
